In patent US20090263410A1, “USE OF TGF-B1 INHIBITOR PEPTIDES IN THE PREPARATION OF AN IMMUNE RESPONSE MODULATING AGENT” (Proyecto De Biomedicina Cima, S.L., priority 2005, published 2009):
“Also recorded” adds a separate entry of the source. Where no end group is shown, it is not given here.

Columns and labels:
[1] = test system: regulatory T lymphocytes (CD25+); assay: Inhibition of suppressant action of regulatory T lymphocytes (CD25+) on splenocyte proliferation; format: cell-based, Balb-c mice; conditions: for dose dependence of inhibition of regulatory T lymphocyte action: 50 μM and double dilutions
Method: 1. OBTAINMENT OF TOTAL SPLENOCYTES: To obtain splenocytes from 6-week old, female Balb-c mice, 4 animals were sacrificed, and after extracting the spleen, they were transferred to a clean medium for their dispersion with crystals, the homogenate was filtered (70-micron filter) and transferred to 50-ml tubes, for their subsequent washing and centrifugation. The cells obtained were incubated for 1 minute in lysis buffer, for the elimination of erythrocytes and they were subsequently washed with clean culture medium. Finally, the cells obtained were resuspended in 1 ml of AUTOMACS medium and they were counted. 2. PURIFICATION OF CD25+ LYMPHOCYTES: the purification of CD25+ lymphocytes was performed by the use of magnetic columns labelling with CD25PE and after incubation, anti-PE magnetic microspheres (Phycoerythrin) were added. After incubation, washing and filtration (30-micron filter) the samples were passed through a magnetic column, obtaining the eluate containing the CD25− population by gravity. Once the column is extracted from the magnetic field it is washed under pressure, obtaining the CD25+ cells. 3. SUPPRESSANT ACTIVITY ASSAY: To verify the regulating nature of the CD25+ population, a total of 100,000 splenocytes was seeded per well on a U-bottomed 96-well plate, in a volume of 200 μl per well and anti-CD3 antibody ([…]) alone or opposing CD25+ or CD25−, placing 25,000 cells per well (CD25+) or 50,000 cells per well (CD25−), performing double dilutions of the concentration of these cells. 4. ASSAY FOR THE INHIBITION OF SUPPRESSANT ACTION BY PEPTIDES: On the U-bottomed 96-well plate, with 200 μl vol/well, 100,000 splenocytes were seeded per well and anti-CD3 antibody (0.5 μl/well) plus 25,000 CD25+ lymphocytes per well. Peptides were added to these mixtures (3 columns/peptide, 50 MicroM in the 1st row and double dilution in the following three rows). 3 peptides were assayed: P17(1-11) SEQ ID NO: 3, P17(1-11)am SEQ ID NO: 4 and AcP17(1-11)am SEQ ID NO: 5. Both this assay and that of the suppressant activity were incubated at 37° C. for 48 h, tritium labelled thymidine was added at 0.5 μCi/well and it is harvested after 8 h, subsequently counting the CPM emitted by the cells from each well. 5. VERIFICATION OF THE EFFECTIVE SEPARATION OF THE Treg: Labelling with fluorescent anti-CD4 and anti-CD25 antibodies and analysis by flow cytometry (89% of the population magnetically separated is DC4+CD25+).

CT26 cells = assay: Tumour growth of subcutaneous CT26 in AH1-immunized mice treated with peptides; format: in vivo, balb-c mice; conditions: 50 μg/mouse/48 h i.p. between days 6 and 10, s.c. CT26 on day 0, AH1 immunization 10 days before
Method: GROUPS: 4 groups of 7 female balb-c mice, of 6 weeks old/group.
AH1+FIA s.c.+p144 (50 μg i.p./dose/mouse) AH1+FIA s.c.+p17(1-11) (50 μg i.p./dose/mouse) DESIGN: AH1+FIA: […]; Peptides: from day −6 on alternate days until day 10: Tumour model volume: Each 3 days from day 10 to day 41. Challenge on day 0 with CT26 (500000 cells/mouse s.c. in the flank).
REDUCTION IN THE MEAN TUMOUR VOLUME BY GROUPS TREATED WITH PEPTIDES: The effect of peptides p144 and p17(1-11)Am was studied in a tumour progression model. In this model, mice were immunized with 50 μg of AH1 10 days before the administration of 5×10^5 CT26 cells. In order to verify the effect of blocking the TGF-β1 on the protection against CT tumour cells, another two groups of mice were treated on alternate days by intraperitoneal route between days 6 and 10 (50 μg/mouse/48 h) with peptides p144 and p17(1-11)Am. […] This protection reached 100% of the animals in the case of p144 (FIG. 16).

[2] = test system: MC38, LLC, CT26 and RENCA tumour lines; assay: NK cell cytotoxicity, 51Cr release assay; format: cell-based, mouse; conditions: effector cells with/without p17 for 6 days; 4.5 h 51Cr release
Method: They were performed from spleen cells from RAG^−/− mice, without T and B lymphocytes. In some cases, the total splenocytes was cultured on 6-well plates at 4×10^6 cells per ml of RPMI medium enriched with 10% SBF, L-glutamine, antibiotics, non-essential amino acids, β-mercaptoethanol and human recombinant interleukin-2 (Chiron) at 600 IU/ml. In half the wells, peptide p17 was added at a concentration of 150 μg/ml. After 48 hours, the medium was removed and the wells were washed with RPMI medium to discard the non-adherent cells. Next, fresh medium was added with/without peptide. On day +5, the medium was again changed, this time replacing all the cells and peptide p17 in the corresponding cultures. The cells counts with trypan blue were performed on days +5 and +6 of this culture. In other cases, NK cells from mouse splenocytes were purified by an immunomagnetic selection using the MiniMACS system, anti-DX5 beads and MS columns (Miltenyi Biotech) according to the manufacturer's instructions. […]
The cytotoxicity of NK cells was verified by standard 4.5 h ^51Cr release assays. […] Finally, the release of ^51Cr due to lysis by NK cells was measured after 4.5 h in a TopCount Scintillation counter (Perkin Elmer). The cytotoxicity was measured as a percentage of Cr released with respect to the total acquired by the cells. […]

Substance | dose dependence of inhibition of regulatory T lymphocyte action [1] | inhibition of the suppressant effect of regulatory T lymphocytes ([1]; peptide 25 μM) | inhibition of the suppressant effect of regulatory T lymphocytes ([1]; peptide 50 μM) | tumour growth (CT26 cells) | tumour growth (CT26 cells; listed as p17(1-11)Am) | inhibition of the suppressant effect of regulatory T lymphocytes ([1]; peptide 50 μM, listed as P17(1-1)am) | cytotoxic activity of NK cells against tumour lines [2]
Acp17(1-11)am: p17(1-11)am which further has position 1 (lysine) acetylated, SEQ ID NO: 5 (Ac-KRIWFIPRSSW-NH2) | dose-dependent | 148% | totally inhibiting |  |  |  | 
p17(1-11)am: amino acids 1 to 11 of peptide p17, position 11 (tryptophan) amidated, SEQ ID NO: 4 (KRIWFIPRSSW-NH2) | dose-dependent |  | 128% | delay tumour growth | protection against tumour growth | totally inhibiting | 
KRIWFIPRSSWYERA [p17] |  |  |  |  |  |  | improves the cytotoxic activity; also recorded: increases the cytotoxicity
p17(1-11): fragment of peptide p17, amino acids 1 to 11, SEQ ID NO: 3 (KRIWFIPRSSW) |  |  | 20% |  |  |  | 
